Experimental data taken from patent publication US20260026505A1, “HERBICIDAL COMPOSITIONS” (SYNGENTA CROP PROTECTION AG, priority 2022, published 2026).
Values joined by “and” are separate entries in the source; they are usually repeats but may differ in a detail not shown here. Identical values can stand only once.

Legend:
Assay type in all cases: in vivo
Conditions in all cases: after 13 days
Setaria faberi (SETFA) = experiment: Glasshouse herbicide test, sprayed 1 day after sowing, visual percentage phytotoxicity, Colby synergy
Protocol: (§1) Seeds of Amaranthus retroflexus (AMARE), Echinochloa crus-galli (ECHCG), Digitaria sanguinalis (DIGSA), Lolium perenne (LOLPE), Alopecurus myosuroides (ALOMY), Chenopodium album (CHEAL), Setaria faberi(SETFA), Abutilon theophrasti(ABUTH), Setaria viridis (SETVI) and Ipomoea hederacea (IPOHE) were sown in standard sterilised soil in pots. After cultivation for 1 day under controlled conditions in a glasshouse (at 24/16° C., day/night; 14 hours light; 65% humidity), the plants were sprayed at 500 l/Ha with an aqueous spray solution derived from the formulation of the technical active ingredients in a small amount of acetone and a solvent and emulsifier mixture referred to as IF50 (11.12% Emulsogen EL360 TM+44.44% N-methylpyrrolidone+44.44% Dowanol DPM glycol ether), to create a 50 g/l solution which was then diluted using 0.2% Genapol X080 (CAS Number: 9043-30-5) as diluent to give the desired final dose of test compound. Where active ingredients were applied as mixtures, aqueous spray solutions were prepared as above, containing both active ingredients. The test plants were then grown under controlled conditions in a glasshouse (at 24/16° C., day/night; 14 hours light; 65% humidity) and watered twice daily. After 13 days, the test was evaluated visually for percentage phytotoxicity to the plants (where 100=total damage to plant; 0=no damage to plant) when compared to control untreated plants. Two to four replicates were applied for each treatment in a randomised block test design.
(§2) 22., E=X+Y−(X*Y/100), where • X=average percent phytotoxicity of herbicide A when applied at a certain rate • Y=average percent phytotoxicity using herbicide B when applied at a certain rate • E=the expected effect of the mixture of herbicides A and B as calculated from the Colby formula.

[1] = system: Echinochloa crus-galli (ECHCG); experiment: as above
Protocol: as §1, §2

[2] = system: Ipomoea hederacea (IPOHE); experiment: as above
Protocol: as §1, §2

[3] = system: Alopecurus myosuroides (ALOMY); experiment: as above
Protocol: as §1, §2

[4] = system: Abutilon theophrasti (ABUTH); experiment: as above
Protocol: as §1, §2

[5] = system: Digitaria sanguinalis (DIGSA); experiment: as above
Protocol: as §1, §2

[6] = system: Amaranthus retroflexus (AMARE); experiment: as above
Protocol: as §1, §2

[7] = system: Chenopodium album (CHEAL); experiment: as above
Protocol: as §1, §2

[8] = Glasshouse herbicide test, first A + B-20 table, weed species not given
Protocol: as §1, §2

Setaria viridis (SETVI) = experiment: Glasshouse herbicide test, sprayed 1 day after sowing, visual percentage phytotoxicity, Colby synergy
Protocol: as §1, §2

Lolium perenne (LOLPE) = experiment: as above
Protocol: as §1, §2

CS(=O)(=O)c1ccc(C(=O)C2C(=O)CCCC2=O)c([N+](=O)[O-])c1 [Compound B-4]
Observed (percentage phytotoxicity) (Setaria faberi (SETFA); 3.91 g/ha): 5%
Observed (percentage phytotoxicity) (Setaria faberi (SETFA); 7.81 g/ha): 3%
Observed (percentage phytotoxicity) (Setaria faberi (SETFA); 15.63 g/ha): 8%
Observed (percentage phytotoxicity) ([1]; 3.91 g/ha): 5%
Observed (percentage phytotoxicity) ([2]; 3.91 g/ha): 10%
Observed (percentage phytotoxicity) ([3]; 3.91 g/ha): 0%
Observed (percentage phytotoxicity) ([3]; 7.81 g/ha): 3%
Observed (percentage phytotoxicity) ([4]; 3.91 g/ha): 78%
Observed (percentage phytotoxicity) ([5]; 3.91 g/ha): 70%
Observed (percentage phytotoxicity) ([6]; 3.91 g/ha): 53%
Observed (percentage phytotoxicity) ([6]; 7.81 g/ha): 85%
Observed (percentage phytotoxicity) ([6]; 15.63 g/ha): 85%
Observed (percentage phytotoxicity) ([6]; 31.25 g/ha): 85%

O=C(Nc1ccc(F)cc1F)c1cccnc1Oc1cccc(C(F)(F)F)c1 [Compound B-20]
Observed (percentage phytotoxicity) ([1]; 15.63 g/ha): 10%
Observed (percentage phytotoxicity) ([2]; 31.25 g/ha): 5%
Observed (percentage phytotoxicity) ([7]; 15.63 g/ha): 8%
Observed (percentage phytotoxicity) ([4]; 3.91 g/ha): 8%
Observed (percentage phytotoxicity) ([4]; 15.63 g/ha): 20%
Observed (percentage phytotoxicity) ([4]; 31.25 g/ha): 18%
Observed (percentage phytotoxicity) ([5]; 31.25 g/ha): 68%
Observed (percentage phytotoxicity) ([8]; 15.63 g/ha): 23%
Observed (percentage phytotoxicity) ([8]; 31.25 g/ha): 23%

CC1(C)CON(Cc2ccc(Cl)cc2Br)C1=O [A]
Observed (percentage phytotoxicity) (Setaria viridis (SETVI); 7.81 g/ha): 10%
Observed (percentage phytotoxicity) (Setaria viridis (SETVI); 15.63 g/ha): 26%
Observed (percentage phytotoxicity) (Setaria faberi (SETFA); 7.81 g/ha): 13%
Observed (percentage phytotoxicity) (Setaria faberi (SETFA); 15.63 g/ha): 11%
Observed (percentage phytotoxicity) (Setaria faberi (SETFA); 31.25 g/ha): 41%
Observed (percentage phytotoxicity) ([1]; 7.81 g/ha): 25% and 34%
Observed (percentage phytotoxicity) ([1]; 15.63 g/ha): 48%
Observed (percentage phytotoxicity) ([2]; 7.81 g/ha): 1% and 0%
Observed (percentage phytotoxicity) ([2]; 15.63 g/ha): 0% and 5%
Observed (percentage phytotoxicity) ([2]; 31.25 g/ha): 1%
Observed (percentage phytotoxicity) ([2]; 62.5 g/ha): 1%
Observed (percentage phytotoxicity) ([7]; 15.63 g/ha): 21%
Observed (percentage phytotoxicity) (Lolium perenne (LOLPE); 3.91 g/ha): 8%
Observed (percentage phytotoxicity) (Lolium perenne (LOLPE); 7.81 g/ha): 13%
Observed (percentage phytotoxicity) (Lolium perenne (LOLPE); 15.63 g/ha): 13%
Observed (percentage phytotoxicity) (Lolium perenne (LOLPE); 31.25 g/ha): 35% and 18%
Observed (percentage phytotoxicity) (Lolium perenne (LOLPE); 62.5 g/ha): 43% and 30%
Observed (percentage phytotoxicity) ([3]; 7.81 g/ha): 5%
Observed (percentage phytotoxicity) ([3]; 15.63 g/ha): 10%
Observed (percentage phytotoxicity) ([3]; 31.25 g/ha): 21% and 16%
Observed (percentage phytotoxicity) ([3]; 62.5 g/ha): 40%
Observed (percentage phytotoxicity) ([3]; 125 g/ha): 68%
Observed (percentage phytotoxicity) ([4]; 7.81 g/ha): 6%
Observed (percentage phytotoxicity) ([4]; 31.25 g/ha): 5% and 11%
Observed (percentage phytotoxicity) ([4]; 125 g/ha): 31%
Observed (percentage phytotoxicity) ([5]; 3.91 g/ha): 4%
Observed (percentage phytotoxicity) ([5]; 7.81 g/ha): 3%
Observed (percentage phytotoxicity) ([5]; 15.63 g/ha): 5%
Observed (percentage phytotoxicity) ([5]; 31.25 g/ha): 11%
Observed (percentage phytotoxicity) ([5]; 62.5 g/ha): 68%
Observed (percentage phytotoxicity) ([6]; 3.91 g/ha): 11%
Observed (percentage phytotoxicity) ([6]; 31.25 g/ha): 21%
Observed (percentage phytotoxicity) ([6]; 62.5 g/ha): 31% and 50%
Observed (percentage phytotoxicity) ([6]; 125 g/ha): 74%
Observed (percentage phytotoxicity) ([8]; 15.63 g/ha): 10%
Observed (percentage phytotoxicity) ([8]; 31.25 g/ha): 21%

CCCN(CCC)C(=O)SCc1ccccc1 [Compound B-7]
Observed (percentage phytotoxicity) (Setaria viridis (SETVI); 31.25 g/ha): 5%
Observed (percentage phytotoxicity) (Setaria viridis (SETVI); 125 g/ha): 8%
Observed (percentage phytotoxicity) ([2]; 31.25 g/ha): 10%
Observed (percentage phytotoxicity) ([2]; 62.5 g/ha): 5%
Observed (percentage phytotoxicity) ([2]; 125 g/ha): 8%
Observed (percentage phytotoxicity) ([2]; 250 g/ha): 20%
Observed (percentage phytotoxicity) ([7]; 62.5 g/ha): 9%
Observed (percentage phytotoxicity) ([7]; 125 g/ha): 15%
Observed (percentage phytotoxicity) ([7]; 250 g/ha): 15%
Observed (percentage phytotoxicity) (Lolium perenne (LOLPE); 62.5 g/ha): 10%
Observed (percentage phytotoxicity) (Lolium perenne (LOLPE); 125 g/ha): 8%
Observed (percentage phytotoxicity) (Lolium perenne (LOLPE); 250 g/ha): 10%
Observed (percentage phytotoxicity) ([3]; 125 g/ha): 15%
Observed (percentage phytotoxicity) ([3]; 250 g/ha): 10%
Observed (percentage phytotoxicity) ([4]; 62.5 g/ha): 8%
Observed (percentage phytotoxicity) ([4]; 125 g/ha): 15%
Observed (percentage phytotoxicity) ([5]; 62.5 g/ha): 13%
Observed (percentage phytotoxicity) ([5]; 125 g/ha): 3%
Observed (percentage phytotoxicity) ([6]; 62.5 g/ha): 48%
Observed (percentage phytotoxicity) ([6]; 250 g/ha): 45%

Cn1nc(C(F)(F)F)c(CS(=O)(=O)C2=NOC(C)(C)C2)c1OC(F)F [Compound B-9]
Observed (percentage phytotoxicity) ([2]; 7.81 g/ha): 53%
Observed (percentage phytotoxicity) ([2]; 15.63 g/ha): 73%
Observed (percentage phytotoxicity) (Lolium perenne (LOLPE); 1.95 g/ha): 14%
Observed (percentage phytotoxicity) (Lolium perenne (LOLPE); 3.91 g/ha): 40%
Observed (percentage phytotoxicity) (Lolium perenne (LOLPE); 7.81 g/ha): 44%
Observed (percentage phytotoxicity) (Lolium perenne (LOLPE); 15.63 g/ha): 48%
Observed (percentage phytotoxicity) (Lolium perenne (LOLPE); 31.25 g/ha): 66%
Observed (percentage phytotoxicity) ([4]; 3.91 g/ha): 40%
Observed (percentage phytotoxicity) ([4]; 7.81 g/ha): 55%
Observed (percentage phytotoxicity) ([5]; 1.95 g/ha): 13%
Observed (percentage phytotoxicity) ([5]; 3.91 g/ha): 43%
Observed (percentage phytotoxicity) ([5]; 7.81 g/ha): 65%
Observed (percentage phytotoxicity) ([6]; 1.95 g/ha): 40%

CC(C)N(C(=O)COc1nnc(C(F)(F)F)s1)c1ccc(F)cc1 [Compound B-16]
Observed (percentage phytotoxicity) ([2]; 3.91 g/ha): 5%
Observed (percentage phytotoxicity) ([2]; 7.81 g/ha): 8%
Observed (percentage phytotoxicity) ([7]; 15.63 g/ha): 48%
Observed (percentage phytotoxicity) (Lolium perenne (LOLPE); 3.91 g/ha): 45%
Observed (percentage phytotoxicity) ([4]; 15.63 g/ha): 23%
Observed (percentage phytotoxicity) ([6]; 31.25 g/ha): 70%
